We go through seven substances from article PMC7604311, “Caprine Bactenecins as Promising Tools for Developing New Antimicrobial and Antitumor Drugs” (Frontiers in Cellular and Infection Microbiology, 2020).

The subject of series [1] is E. coli ML-35p. The experiment in a line: Broth microdilution assay (MIC). It counts as cell-based, Escherichia coli. Particulars: 50% MH broth/50% 10 mM Na-P buffer pH 7.4 with 0.1% BSA, 1×10^6 CFU/ml, 20 h, median of 3–6 independent experiments in triplicate. The protocol: The minimal inhibitory concentrations (MIC) of peptides were determined using microdilution assay in Müller–Hinton (MH) broth in general accordance with the guidelines of the European Committee for Antimicrobial Susceptibility Testing. Test plates were additionally pretreated with 0.1% bovine serum albumin (BSA) in distilled H2O (incubated for 1 h at 37°C) to reduce possible non-specific binding of peptides to the plastic surface of the wells, as proposed for AMP activity measuring ([Tossi et al., 1997]; [Wiegand et al., 2008]). Two-fold serial dilutions of peptides starting with 2 × stock concentration were prepared in sterile 10 mM sodium phosphate (Na-P) buffer, pH 7.4, with 0.1% BSA. Thus, final solutions contained 50% of Na-P diluted peptide and 50% of MH broth with bacteria. Bacteria for testing were grown overnight, then transferred into a fresh portion of 2.1% MH medium and additionally incubated for 2–3 h to obtain bacterial culture in its mid-logarithmic growth phase, which was diluted down to the final concentration of 1 × 10^6 CFU/ml. Concentration of bacteria in growth medium was calculated based on its absorbance at 620 nm.
After 20 h of incubation of AMPs with bacteria MICs were determined as lowest concentrations of AMPs completely preventing the visible growth of bacteria. Tests were performed in 60-well Terasaki microplates (10 µl end volume, V-shaped bottom; Sarstedt, Germany); dilutions in each test were made in triplicate. Final MIC values were calculated as medians based on the results of 3–5 independent experiments.
In general terms: In broth dilution the organism is exposed to a series of concentrations in liquid medium.

A short description of series [2]: MTT test. The format is cell-based. Particulars: human, serum-free RPMI-1640, overnight incubation, mean ± SD of three independent tests, read-out: IC50 of cytotoxic action toward human PBMC. On the procedure: Cytotoxic activity of peptides toward various types of eukaryotic cells was assessed using the standard MTT [3-(4,5-Dimethylthiazol-2-yl)-2,5-diphenyltetrazolium bromide] test ([Mosmann, 1983]). Human peripheral blood mononuclear cells (PBMC) were isolated from the peripheral blood of healthy donors. Whole heparinized blood diluted 3-fold with sterile PBS was carefully layered upon the 5 ml of the sterile Ficoll-400 (Pharmacia, Sweden) with a density of 1.077 in a sterile 50 ml conical tube and then centrifuged at 600 g and 4°C for 40 min. The mononuclear “ring” remaining above the Ficoll was collected using a transfer pipette and placed in another tube. Cells were washed twice with sterile PBS, resuspended in RPMI-1640 culture medium and immediately used for the test. Tumor cell lines were purchased from Biolot (Saint Petersburg, Russia) and cultured at 37°C and 5% CO2 in RPMI-1640 medium (Biolot, Saint Petersburg, Russia) supplemented with 10% fetal bovine serum, glutamine, and penicillin-streptomycin combination. For the experiments, cells were washed from the medium they were growing in and resuspended in serum- and antibiotic-free RPMI-1640. Cells were added at not less than 2 × 10^4 per well in sterile flat bottom 96-well microplates containing serial dilutions of tested peptides in RPMI-1640. For the positive control (100% viable cells), RPMI-1640 medium was used instead of the peptide solution, whereas for the negative control (0% viable cells) medium replaced both peptide and cells. Test plates were incubated at 37°C and 5% CO2 overnight, after which MTT metabolic marker in PBS (5 mg/ml) was introduced into each well. After an additional 4 h incubation, the reaction was stopped by adding isopropanol supplemented with 0.04 M HCl, in which the formazan crystals (formed as a result of MTT reduction in presence of metabolically active cells) were dissolved, and OD at 540 nm was measured. Background absorbance at 690 nm was subtracted from the results to countervail any unspecific OD fluctuations. The % of surviving cells was found as:
(2) Survival(%)=(ODsample−OD0% viable)/(OD100% viable−OD0% viable)×100%,
where ODsample, OD0% viable, and OD100% viable are respectively values of the OD at 540 nm minus the OD at 690 nm for the test sample and negative or positive controls. IC50 toxicity values were determined by nonlinear regression analysis of the dose response curves using Sigma Plot 11 (Systat Software Inc., USA). The experiments were repeated three times, with 3 parallels of samples and 4–6 parallels of controls each time.
On the technique in general: Tetrazolium dyes change colour on reduction, which living cells bring about.

Series [3] relates to A. baumannii 7226/16. It counts as cell-based, Acinetobacter baumannii. As to conditions: 7226/16, 24 h. On the procedure:
Quantification of the biofilms forming in the presence of various concentrations of tested AMPs was performed using the crystal violet assay according to general guidelines ([Merritt et al., 2006]). Tests were performed in polystyrene 96-well plates with U-shaped bottom. Peptides were serially diluted in a bacterial growth medium (MH for A. baumannii or TSB for P. aeruguinosa) in a volume of 50 μl per well. Overnight cultures of tested bacteria in a stationary phase of growth were 50 times diluted and introduced into the experimental wells at the same volume of 50 μl. Samples were incubated for 24 h at 37°C. The content of the wells was then shacked out, the plates were gently washed from unattached planktonic bacteria in still water (poured into a large enough vessel); bacterial cells and matrix components adhered to the walls of the wells were stained with a 0.1% aqueous solution of crystal violet dye: 125 μl of dye solution was put into each well and incubated at room temperature for 10 min. […] One hundred and twenty five microliters of crystal violet extract from each well were transferred into a flat-bottomed microtiter plate, and the optical density was measured at a wavelength of 560–595 nm (depending on the maximum of absorption in a particular experiment). […] Presented results are medians calculated based on 3 independent experiments.

Series [4] has as its system P. aeruginosa MDR 522/17. The format is cell-based, Pseudomonas aeruginosa. Particulars: MDR 522/17, 24 h. The protocol: Quantification of the biofilms forming in the presence of various concentrations of tested AMPs was performed using the crystal violet assay according to general guidelines ([Merritt et al., 2006]). Tests were performed in polystyrene 96-well plates with U-shaped bottom. Peptides were serially diluted in a bacterial growth medium (MH for A. baumannii or TSB for P. aeruguinosa) in a volume of 50 μl per well. Overnight cultures of tested bacteria in a stationary phase of growth were 50 times diluted and introduced into the experimental wells at the same volume of 50 μl. Samples were incubated for 24 h at 37°C. The content of the wells was then shacked out, the plates were gently washed from unattached planktonic bacteria in still water (poured into a large enough vessel); bacterial cells and matrix components adhered to the walls of the wells were stained with a 0.1% aqueous solution of crystal violet dye: 125 μl of dye solution was put into each well and incubated at room temperature for 10 min. After staining dye solution was removed, the plates were washed with clean water and allowed to air-dry. Finally, the bound dye was redissolved by adding 200 μl of 30% acetic acid into each well, incubating it for 15 min at room temperature, and then thoroughly mixing the content of the wells by pipetting. One hundred and twenty five microliters of crystal violet extract from each well were transferred into a flat-bottomed microtiter plate, and the optical density was measured at a wavelength of 560–595 nm (depending on the maximum of absorption in a particular experiment). Experimental samples were made in quadruplicates, and there were 8–9 repeats of control samples without peptides in each test. Presented results are medians calculated based on 3 independent experiments.

Series [5] concerns human erythrocytes. Particulars: cited from earlier work. The source says: The majority of AMPs are membranolytic, and even though eukaryotic cell membranes are less anionic than those of bacterial cells, have a lower membrane potential and are protected by the presence of cholesterol ([Matsuzaki, 2009]), they are considered to be a secondary target, affecting the selectivity of AMPs. […] The hemolysis assay is widely utilized for the express analysis of the toxic properties of AMPs, relating to their membranolytic activity. It was previously shown that na ...

The test system of series [6] is U937. Kind of series: MTT test. The format is cell-based, human. As to conditions: serum-free RPMI-1640, overnight incubation, mean ± SD of three independent tests, read-out: IC50 of cytotoxic action toward U937. The protocol: Cytotoxic activity of peptides toward various types of eukaryotic cells was assessed using the standard MTT [3-(4,5-Dimethylthiazol-2-yl)-2,5-diphenyltetrazolium bromide] test ([Mosmann, 1983]). Human peripheral blood mononuclear cells (PBMC) were isolated from the peripheral blood of healthy donors. Whole heparinized blood diluted 3-fold with sterile PBS was carefully layered upon the 5 ml of the sterile Ficoll-400 (Pharmacia, Sweden) with a density of 1.077 in a sterile 50 ml conical tube and then centrifuged at 600 g and 4°C for 40 min. The mononuclear “ring” remaining above the Ficoll was collected using a transfer pipette and placed in another tube. Cells were washed twice with sterile PBS, resuspended in RPMI-1640 culture medium and immediately used for the test. Tumor cell lines were purchased from Biolot (Saint Petersburg, Russia) and cultured at 37°C and 5% CO2 in RPMI-1640 medium (Biolot, Saint Petersburg, Russia) supplemented with 10% fetal bovine serum, glutamine, and penicillin-streptomycin combination. For the experiments, cells were washed from the medium they were growing in and resuspended in serum- and antibiotic-free RPMI-1640. Cells were added at not less than 2 × 10^4 per well in sterile flat bottom 96-well microplates containing serial dilutions of tested peptides in RPMI-1640. […] After an additional 4 h incubation, the reaction was stopped by adding isopropanol supplemented with 0.04 M HCl, in which the formazan crystals (formed as a result of MTT reduction in presence of metabolically active cells) were dissolved, and OD at 540 nm was measured. Background absorbance at 690 nm was subtracted from the results to countervail any unspecific OD fluctuations. […]
where ODsample, OD0% viable, and OD100% viable are respectively values of the OD at 540 nm minus the OD at 690 nm for the test sample and negative or positive controls. IC50 toxicity values were determined by nonlinear regression analysis of the dose response curves using Sigma Plot 11 (Systat Software Inc., USA). […]

Read-outs that look alike come from different tables or passages of the source. Ends that are not written are not given here.

The term MIC denotes the smallest concentration in the dilution series that meets the test's criterion for growth inhibition. A word on the IC50: it is the concentration that gives 50% inhibition. In the case of “RFRLPFRRPPIRIHPPPFYPPFRRFL [ChBac3.4-COOH]”, in series [1], the MIC stood at 2 µM. Further, in series [2], the IC50 amounted to 36.2 ± 6.9 µM.
As to “RFRLPFRRPPIRIHPPPFYPPFRRFL-NH2 [ChBac3.4-NH2]”, the MIC in series [1] worked out at 2 µM. The values for the Biofilm inhibition in series [3] and in series [4] were 56 ± 12% and 63 ± 9%, respectively. In addition, the IC50 in series [2] came out at 18.6 ± 0.8 µM. Moreover, the “Hemolytic activity” value in series [5] is reported as “not hemolytic”.
In turn, “RFRLPFRRPPIRIPPPFYPPFRRFL-NH2 [ChBac3.4(Н-)]” had an MIC in series [1] of 4 µM. Besides, the IC50 in series [2] was found to be 34.7 ± 7.3 µM.
Substance “RFRLPFRRPWPIRIHPPPFYPWPFRRFL [ChBac3.4-2-COOH]” registered an MIC in series [1] of 4 µM. Also, the IC50 in series [2] was 20.2 ± 4.5 µM.
Substance “RFRRFRLPFRRIHPPPFVRIHPPPFYRRFL-NH2 [RFR-ChBac3.4-1-NH2]” displayed an MIC in series [1] of 4 µM. The substance further gave a Biofilm inhibition in series [4] of 62 ± 1.5%. Also, the IC50 in series [2] was found to be 18.3 ± 4.1 µM.
“RFRRFRLPFRRPPIRIH-NH2 [RFR-ChBac3.4 (1-14)-NH2]” registered a minimal inhibitory concentration (MIC) in series [1] of 1 µM. Moreover, the figures for the Biofilm inhibition in series [3] (2) and in series [4] were 53 ± 3% and 79 ± 5%, respectively. In addition, the IC50 in series [2] and in series [6] was > 64 µM throughout.
Turning to RIHPPPFYPPFRRFL-NH2 [ChBac3.4 (12-26)], in series [1], the MIC amounted to 64 µM. The IC50 in series [2] is 43.3 ± 7.7 µM.
